Reference: patent US9249102B2 (priority 2012, dated 2016)
Where two headings read alike, the source gives them in different places.

Columns and labels:
[1] = system: Cooperia oncophora; assay: Method C: Cooperia oncophora L1 larvae in vitro; settings: 96 h, read-out: inhibition of motility
[2] = system: Haemonchus contortus; assay: Method A: Haemonchus contortus L1 larvae, microtitre plate screen; settings: 96 h, read-out: motility inhibition
[3] = system: microfilaria of Dirofilaria immitis; assay: Method F: microfilaria of Dirofilaria immitis, survival at 24 hours
[4] = survival of microfilaria at 24 hours

SMILES | inhibition at 5 µg/mL [1] | inhibition at 5 µg/mL [2] | EC50 [3, 4] | EC50 [3]
C[C@@H]([C@H]1Cc2cc(F)ccc2O1)N1CCN(C(=O)COC2CCC(Nc3ccc([N+](=O)[O-])c(C(F)(F)F)c3)CC2)CC1 (relative stereo) [Compound 260, 1-(4-((S)-1-((R)-5-fluoro-2,3-dihydrobenzofuran-2-yl)ethyl)piperazin-1-yl)-2-(4-(4-nitro-3-(trifluoromethyl)phenylamino)cyclohexyloxy)ethanone] | ≥ 90% | ≥ 90% | < 1 µg/mL | 
O=C(CO[C@H]1CC[C@H](Nc2ccc([N+](=O)[O-])c(C(F)(F)F)c2)CC1)N1CCN(CC2Cc3cc(Cl)ccc3O2)CC1 (stereo partly shown) [Compound 76, 1-[4-[(5-chloro-2,3-dihydro-1-benzofuran-2-yl)methyl]piperazin-1-yl]-2-[(4-[[4-nitro-3-(trifluoromethyl)phenyl]amino]cyclohexyl)oxy]ethan-1-one] | ≥ 90% | ≥ 90% |  | < 5 µg/mL
O=C(CO[C@H]1CC[C@H](Nc2ccc([N+](=O)[O-])c(C(F)(F)F)c2)CC1)N1CCN(c2ccc3cc(Cl)ccc3n2)CC1 [Compound 90, 1-[4-(6-chloroquinolin-2-yl)piperazin-1-yl]-2-[(4-[[4-nitro-3-(trifluoromethyl)phenyl]amino]cyclohexyl)oxy]ethan-1-one] | ≥ 90% | ≥ 90% | < 0.1 µg/mL | 
Cc1cc(N2CCN(C(=O)CO[C@H]3CC[C@H](Nc4ccc([N+](=O)[O-])c(C(F)(F)F)c4)CC3)CC2)nc2ccc(F)cc12 [Compound 99, 1-[4-(6-fluoro-4-methyl-2-quinolyl)piperazin-1-yl]-2-[4-[4-nitro-3-(trifluoromethyl)anilino]cyclohexoxy]ethanone] | ≥ 90% | ≥ 90% | < 1 µg/mL | 
O=C(CO[C@H]1CC[C@H](Nc2ccc([N+](=O)[O-])c(C(F)(F)F)c2)CC1)N1CCN(C(=O)c2cc3cc(C(F)(F)F)ccc3o2)CC1 [Compound 183, 2-[(4-[[4-nitro-3-(trifluoromethyl)phenyl]amino]cyclohexan-1-e)oxy]-1-(4-[[5-(trifluoromethyl)-1-benzofuran-2-yl]carbonyl]piperazin-1-yl)ethan-1-one] | ≥ 90% | ≥ 90% | < 1 µg/mL | 
O=C(CO[C@H]1CC[C@H](Nc2ccc([N+](=O)[O-])c(C(F)(F)F)c2)CC1)N1CCN(c2nc3cc(F)ccc3s2)CC1 [Compound 237, 1-[4-(5-fluoro-1,3-benzothiazol-2-yl)piperazin-1-yl]-2-[[4-[[4-nitro-3-(trifluoromethyl)pheny-1]amino]cyclohexyl]oxy]ethan-1-one] | ≥ 90% | ≥ 90% | < 0.1 µg/mL | 
N#Cc1ccc(N[C@H]2CC[C@H](OCC(=O)N3CCN(c4ccc5cc(F)ccc5c4)CC3)CC2)cc1C(F)(F)F [Compound 279, 4-(4-{2-[4-(6-fluoro-naphthalen-2-yl)-piperazin-1-yl]-2-oxo-ethoxy}-cyclohexylamino)-2-trifluoromethyl-benzonitrile] |  | ≥ 90% | < 5 µg/mL | 
CN(c1ccc(C#N)c(C(F)(F)F)c1)[C@H]1CC[C@H](OCC(=O)N2CCN(c3ccc4cc(Br)ccc4n3)CC2)CC1 [Compound 281, 2-[(4-[methyl[4-cyano-3-(trifluoromethyl)phenyl]amino]cyclohexyl)-oxy]-1-[4-(6-bromoquinolin-2-yl)piperazin-1-yl]ethan-1-one] | ≥ 90% | ≥ 90% |  | 
CN(c1ccc(C#N)c(C(F)(F)F)c1)[C@H]1CC[C@H](OCC(=O)N2CCN(c3ccc4cc(Cl)ccc4n3)CC2)CC1 [Compound 282, 2-[(4-[methyl[4-cyano-3-(trifluoromethyl)phenyl]amino]cyclohexyl)-oxy]1-[4-(6-chloroquinolin-2-yl)-piperazin-1-yl]ethan-1-one] | ≥ 90% | ≥ 90% |  | 
O=C(CO[C@H]1CC[C@H](Nc2ccc([N+](=O)[O-])c(C(F)(F)F)c2)CC1)N1CCN(c2ccc3cc(F)ccc3c2F)CC1 [Compound 289, 1-[4-(1,6-difluoro-naphthalen-2-yl)-piperazin-1-yl]-2-[4-(4-nitro-3-trifluoromethyl-phenylamino)-cyclohexyloxy]-ethanone] | ≥ 90% | ≥ 90% |  | 
N#Cc1ccc(N[C@H]2CC[C@H](OCC(=O)N3CCN(Cc4oc5ccc(C(F)(F)F)cc5c4Cl)CC3)CC2)cc1C(F)(F)F [Compound 305, 4-(4-{2-[4-(3-chloro-5-trifluoromethyl-benzofuran-2-ylmethyl)-piperazin-1-yl]-2-oxo-ethoxy}-cyclohexylamino)-2-trifluoromethyl-benzonitrile] |  | ≥ 90% | < 0.1 µg/mL | 
C[C@@H]1CN(CC2Cc3cc(F)ccc3O2)[C@@H](C)CN1C(=O)CO[C@H]1CC[C@H](Nc2ccc(C#N)c(C(F)(F)F)c2)CC1 (stereo partly drawn) [Compound 308, 4-(4-{2-[(2R,5S)-4-(5-fluoro-2,3-dihydro-benzofuran-2-ylmethyl)-2,5-dimethyl-piperazin-1-yl]-2-oxo-ethoxy}-cyclohexylamino)-2-trifluoromethyl-benzonitrile] |  | ≥ 90% |  | < 0.1 µg/mL
O=C(CO[C@H]1CC[C@H](Nc2ccc([N+](=O)[O-])c(C(F)(F)F)c2)CC1)N1CC2CCC1CN2CC1Cc2cc(F)ccc2O1 (stereo partly shown) [Compound 309, 1-[5-(5-fluoro-2,3-dihydro-benzofuran-2-ylmethyl)-2,5-diaza-bicyclo[2.2.2]oct-2-yl]-2-[4-(4-nitro-3-trifluoromethyl-phenylamino)-cyclohexyloxy]-ethanone] |  | ≥ 90% | < 0.1 µg/mL | 
O=C(CO[C@H]1CC[C@H](Nc2ccc([N+](=O)[O-])c(C(F)(F)F)c2)CC1)N1CCN(Cc2cc3cc(OC(F)(F)F)ccc3o2)CC1 [Compound 326, 2-[(4-[[4-nitro-3-(trifluoromethyl)phenyl]amino]cyclohexyl)-oxy]1-[4-[5-(trifluoromethoxy)benzofuran-2-ylmethyl]piperazin-1-yl]ethan-1-one] | ≥ 90% | ≥ 90% |  | 
O=C(CO[C@H]1CC[C@H](Nc2ccc(S(=O)(=O)C(F)(F)F)cc2)CC1)N1CCN(c2ccc3cc(C(F)(F)F)ccc3n2)CC1 [Compound 331, 1-[4-[6-(trifluoromethyl)-2-quinolyl]piperazin-1-yl]-2-[4-[4-(trifluoromethylsulfonyl)anilino]cyclohexoxy]ethanone] | ≥ 90% | ≥ 90% |  | 
CC(c1nc2cc(C(F)(F)F)ccc2s1)N1CCN(C(=O)CO[C@H]2CC[C@H](Nc3ccc([N+](=O)[O-])c(C(F)(F)F)c3)CC2)CC1 (stereo partly shown) [Compound 343, 2-[4-(4-nitro-3-trifluoromethyl-phenylamino)-cyclohexyloxy]-1-{4-[1-(5-trifluoromethyl-benzothiazol-2-yl)-ethyl]-piperazin-1-yl}-ethanone] | ≥ 90% | ≥ 90% |  | 
O=C(CO[C@H]1CC[C@H](Nc2ccc(S(=O)(=O)C(F)(F)F)cc2)CC1)N1CCN(Cc2nc3cc(C(F)(F)F)ccc3s2)CC1 [Compound 344, 1-[4-[[5-(trifluoromethyl)-1,3-benzothiazol-2-yl]methyl]piperazin-1-yl]-2-[4-[4-(trifluoromethylsulfonyl)anilino]cyclohexoxy]ethanone] | ≥ 90% | ≥ 90% |  | 
